Experimental data taken from patent publication US20100209489A1, “Formulations of desvenlafaxine” (Supernus Pharmaceuticals, Inc., priority 2009, published 2010).
Read-outs that look alike come from different tables or passages of the source.

Key:
[1] = cited from earlier work
[2] = DI water, room temperature overnight
Procedure: All samples were prepared with DI water, pH 5.5. Controls were prepared similarly without the use of modulators. All test samples were mixed overnight at room temperature. The samples were then filtered and analyzed using HPLC-UV method.

CN(C)CC(c1ccc(O)cc1)C1(O)CCCCC1 (racemic) [desvenlafaxine]
adverse events and discontinuations ([1]; at higher doses (above 50 mg/day)): more frequent | efficacy in clinical studies ([1]; dose of 50-400 mg/day): effective | additional benefit in clinical studies ([1]; doses higher than 50 mg/day): no additional benefit

CN(C)CC(c1ccc(O)cc1)C1(O)CCCCC1.Cl.O (single isomer, unassigned; (-)) [(−)-O-desmethyl venlafaxine HCl monohydrate]
solubility (at about pH 6.0): less than 100 mg/mL | solubility (higher pH, close to the physiological pH): less than 1 mg/mL | solubility (low pH, for example pH 1.0): a few hundred | API Solubility ([2]; control without modulators, sample pH 5.2-5.5): 611 mg/mL | API Solubility ([2]; with Alginic acid, sample pH 2.4-2.7): 568 mg/mL | API Solubility ([2]; with Ascorbic acid, sample pH 2.7-3.0): 597 mg/mL | API Solubility ([2]; with Beta cyclodextrin, sample pH 5.2-5.5): 502 mg/mL | API Solubility ([2]; with Carbopol 941, sample pH 3.2-3.5): 587 mg/mL | API Solubility ([2]; with Citric acid, sample pH 2.1-2.4): 612 mg/mL | API Solubility ([2]; with Eudragit L100, sample pH 3.2-3.5): 547 mg/mL | API Solubility ([2]; with Fumaric acid, sample pH <1.8): 639 mg/mL | API Solubility ([2]; with Gelucire 44/14, sample pH 5.2-5.5): 521 mg/mL | API Solubility ([2]; with HPMCP, sample pH 2.7-3.0): 572 mg/mL | API Solubility ([2]; with Hydroxypropyl beta cyclodextrin, sample pH 5.5-5.7): 589 mg/mL | API Solubility ([2]; with Klucel LF, sample pH 5.5): 536 mg/mL | API Solubility ([2]; with Kollidone 25, sample pH 5.2-5.5): 610 mg/mL | API Solubility ([2]; with Kollidone/Tartaric acid, sample pH 2.1-2.4): 661 mg/mL | API Solubility ([2]; with Lactose, sample pH 5.2-5.5): 665 mg/mL | API Solubility ([2]; with Malic acid, sample pH 1.5-2.0): 677 mg/mL | API Solubility ([2]; with Maltrin M150/Xylitol/Sodium lauryl sulfate/Gelucire 44/14, sample pH 5.2-5.5): 432 mg/mL | API Solubility ([2]; with Maltrin M150, sample pH 5.2-5.5): 565 mg/mL | API Solubility ([2]; with Mannitol/Sorbitol/Tartaric acid/Eudragit L100, sample pH <1.8): 521 mg/mL | API Solubility ([2]; with Mannitol, sample pH 5.2-5.5): 613 mg/mL | API Solubility ([2]; with Methocel E5, sample pH 5.7): 504 mg/mL | API Solubility ([2]; with Methylcyclodextrin, sample pH 5.5): 561 mg/mL | API Solubility ([2]; with PEG 3350, sample pH 5.2-5.5): 602 mg/mL | API Solubility ([2]; with PEG 8000, sample pH 5.2-5.5): 569 mg/mL | API Solubility ([2]; with Poloxamer 188, sample pH 5.2-5.5): 552 mg/mL | API Solubility ([2]; with Sodium Docusate, sample pH 6.3-6.5): 539 mg/mL | API Solubility ([2]; with Sodium lauryl sulfate, sample pH 6.3-6.6): 524 mg/mL | API Solubility ([2]; with Sorbitol, sample pH 5.2-5.5): 549 mg/mL | API Solubility ([2]; with Tartaric acid, sample pH 1.5-2.0): 719 mg/mL | API Solubility ([2]; with Triethyl citrate, sample pH 5.2-5.5): 643 mg/mL | API Solubility ([2]; with Tween 80, sample pH 5.2-5.5): 544 mg/mL | API Solubility ([2]; with Vitamin E TPGS, sample pH 5.2-5.5): 535 mg/mL | API Solubility ([2]; with Xylitol, sample pH 5.2-5.5): 547 mg/mL
